Laboratory results from patent publication US9365562B2, “1,3 substituted azetidine PDE10 inhibitors” (Merck Sharp & Dohme Corp., priority 2011, dated 2016).

Molecular target: human PDE10A2 (Homo sapiens (Human), UniProt Q9Y233)
Assay: PDE10 fluorescence polarization (IMAP FP) inhibition assay
Type: biochemical
Conditions: apparent inhibition constant, FAM-labeled cAMP substrate 50 nM, room temperature
In short: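 Cytoplasmic lysate of AD293 cells transiently expressing human PDE10A2, enzyme preincubated 60 min at room temperature with compounds (1% DMSO), then 50 nM FAM-cAMP added for 60 min. Buffer 10 mM Tris HCl pH 7.2, 10 mM MgCl2, 1 mM DTT; IMAP binding reagent stop, FP read after ≥1 h.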

Sequence of human PDE10A2 (Q9Y233 267-1055): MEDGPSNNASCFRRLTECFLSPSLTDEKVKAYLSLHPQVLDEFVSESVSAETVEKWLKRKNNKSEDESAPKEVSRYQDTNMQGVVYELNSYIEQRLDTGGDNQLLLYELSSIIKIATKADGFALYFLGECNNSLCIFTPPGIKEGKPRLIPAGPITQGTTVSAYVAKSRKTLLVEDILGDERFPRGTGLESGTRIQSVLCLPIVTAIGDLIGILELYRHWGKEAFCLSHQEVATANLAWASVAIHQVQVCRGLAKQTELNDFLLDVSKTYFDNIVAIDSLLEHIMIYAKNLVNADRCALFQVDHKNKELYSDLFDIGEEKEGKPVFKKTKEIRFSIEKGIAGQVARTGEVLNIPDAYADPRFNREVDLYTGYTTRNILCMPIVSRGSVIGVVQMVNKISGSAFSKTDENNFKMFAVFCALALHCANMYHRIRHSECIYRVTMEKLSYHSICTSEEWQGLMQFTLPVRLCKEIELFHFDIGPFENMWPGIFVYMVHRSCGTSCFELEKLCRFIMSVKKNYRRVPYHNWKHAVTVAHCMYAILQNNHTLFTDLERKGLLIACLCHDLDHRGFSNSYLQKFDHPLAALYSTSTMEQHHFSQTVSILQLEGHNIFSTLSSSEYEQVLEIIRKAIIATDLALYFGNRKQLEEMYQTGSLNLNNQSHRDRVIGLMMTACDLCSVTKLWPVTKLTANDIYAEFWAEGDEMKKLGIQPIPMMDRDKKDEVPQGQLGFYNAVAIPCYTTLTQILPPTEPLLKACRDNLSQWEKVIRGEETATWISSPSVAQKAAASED

Structure (SMILES) | Ki
CCCn1c(C2CN(c3cc(-n4nc(C)nc4C)nc(C)n3)C2)nc2ccccc21 [Example 118, 2-(1-(6-(3,5-dimethyl-1H-1,2,4-triazol-1-yl)-2-methylpyrimidin-4-yl)azetidin-3-yl)-1-propyl-1H-benzo[d]imidazole] | 13 nM
Cc1nc(N2CC(c3nc4ccccc4n3C)C2)cc(-n2nc(C)nc2-c2ccccc2)n1 [Example 49, 1-methyl-2-(1-(2-methyl-6-(3-methyl-5-phenyl-1H-1,2,4-triazol-1-yl)pyrimidin-4-yl)azetidin-3-yl)-1H-benzo[d]imidazole] | 6.8 nM
Cc1nc(N2CC(c3nc4c(F)cccc4n3C)C2)cc(-n2nc(C)nc2C)n1 [Example 122, 2-(1-(6-(3,5-dimethyl-1H-1,2,4-triazol-1-yl)-2-methylpyrimidin-4-yl)azetidin-3-yl)-4-fluoro-1-methyl-1H-benzo[d]imidazole] | 17 nM
Cc1nc(-c2ccccc2O)cc(N2CC(c3nc4ccccc4n3C)C2)n1 [Example 92, 2-(2-methyl-6-(3-(1-methyl-1H-benzo[d]imidazol-2-yl)azetidin-1-yl)pyrimidin-4-yl)phenol] | 30 nM
Cc1nc(N2CC(c3nc4ccc(C(F)(F)F)cc4[nH]3)C2)cc(-n2nc(C)nc2C)n1 [Example 113, 2-(1-(6-(3,5-dimethyl-1H-1,2,4-triazol-1-yl)-2-methylpyrimidin-4-yl)azetidin-3-yl)-6-(trifluoromethyl)-1H-benzo[d]imidazole] | > 75 nM
COc1ccccc1-c1cc(N2CC(c3nc4ccccc4n3C)C2)nc(C)n1 [Example 89, 2-(1-(6-(2-methoxyphenyl)-2-methylpyrimidin-4-yl)azetidin-3-yl)-1-methyl-1H-benzo[d]imidazole] | 63 nM
Cc1cn(-c2cc(N3CC(c4nc5ccccc5n4C)C3)nc(C(F)(F)F)n2)nn1 [Example 30, 1-methyl-2-(1-(6-(4-methyl-1H-1,2,3-triazol-1-yl)-2-(trifluoromethyl)pyrimidin-4-yl)azetidin-3-yl)-1H-benzo[d]imidazole] | 5.6 nM
Cc1nc(C2CC2)n(-c2cc(N3CC(c4nc5ccccc5n4C)C3)nc(C(F)(F)F)n2)n1 [Example 68, 2-(1-(6-(5-cyclopropyl-3-methyl-1H-1,2,4-triazol-1-yl)-2-(trifluoromethyl)pyrimidin-4-yl)azetidin-3-yl)-1-methyl-1H-benzo[d]imidazole] | 1.4 nM
Cc1nc(-c2ccc(Cl)cn2)cc(N2CC(c3nc4ccccc4n3C)C2)n1 [Example 99, 2-(1-(6-(5-chloropyridin-2-yl)-2-methylpyrimidin-4-yl)azetidin-3-yl)-1-methyl-1H-benzo[d]imidazole] | 1.1 nM
Cc1nc(N2CC(c3nc4cccc(C(F)(F)F)c4[nH]3)C2)cc(-n2nc(C)nc2C)n1 [Example 112, 2-(1-(6-(3,5-dimethyl-1H-1,2,4-triazol-1-yl)-2-methylpyrimidin-4-yl)azetidin-3-yl)-7-(trifluoromethyl)-1H-benzo[d]imidazole] | > 75 nM
Cc1nc(N2CC(c3nc4ccccc4n3C)C2)cc(-n2cc(CO)cn2)n1 [Example 19, (1-(2-methyl-6-(3-(1-methyl-1H-benzo[d]imidazol-2-yl)azetidin-1-yl)pyrimidin 4-yl)-1H-pyrazol-4-yl)methanol] | 8.3 nM
CC(=O)c1ccc(-c2cc(N3CC(c4nc5ccccc5n4C)C3)nc(C)n2)nc1 [Example 102, 1-(6-(2-methyl-6-(3-(1-methyl-1H-benzo[d]imidazol-2-yl)azetidin-1-yl)pyrimidin-4-yl)pyridin-3-yl)ethanone] | 9 nM
Cc1nc(-c2ccccc2OC(F)F)cc(N2CC(c3nc4ccccc4n3C)C2)n1 [Example 91, 2-(1-(6-(2-(difluoromethoxy)phenyl)-2-methylpyrimidin-4-yl)azetidin-3-yl)-1-methyl-1H-benzo[d]imidazole] | 22 nM
Cc1cc(C(F)(F)F)n(-c2cc(N3CC(c4nc5ccccc5n4C)C3)nc(C)n2)n1 [Example 10, 1-methyl-2-(1-(2-methyl-6-(3-methyl-5-(trifluoromethyl)-1H-pyrazol-1-yl)pyrimidin-4-yl)azetidin-3-yl)-1H-benzo[d]imidazole] | 4 nM
Cc1nc(N2CC(c3nc4ccccc4n3C)C2)cc(-n2nc(C)nc2C)n1 [Example 1, 2-(1-(6-(3,5-dimethyl-1H-1,2,4-triazol-1-yl)-2-methylpyrimidin-4-yl)azetidin-3-yl)-1-methyl-1H-benzo[d]imidazole] | 2.1 nM
Cc1nc(N2CC(c3nc4ccccc4n3C)C2)cc(-n2nc(C)nc2C[C@H](C)O)n1 [Example 40, (S)-1-(3-methyl-1-(2-methyl-6-(3-(1-methyl-1H-benzo[d]imidazol-2-yl)azetidin-1-yl)pyrimidin-4-yl)-1H-1,2,4-triazol-5-yl)propan-2-ol] | 2 nM
Cc1nc(-c2ccc(C#N)cn2)cc(N2CC(c3nc4ccccc4n3C)C2)n1 [Example 103, 6-(2-methyl-6-(3-(1-methyl-1H-benzo[d]imidazol-2-yl)azetidin-1-yl)pyrimidin-4-yl)nicotinonitrile] | 2.4 nM
Cc1nc(C)n(-c2cc(N3CC(c4nc5ccccc5n4C)C3)nc(CC#N)n2)n1 [Example 25, 2-(4-(3,5-dimethyl-1H-1,2,4-triazol-1-yl)-6-(3-(1-methyl-1H-benzo[d]imidazol-2-yl)azetidin-1-yl)pyrimidin-2-yl)acetonitrile] | 1.3 nM
CCn1c(C2CN(c3cc(-n4nc(C)nc4C)nc(C)n3)C2)nc2ccccc21 [Example 114, 2-(1-(6-(3,5-Dimethyl-1H-1,2,4-triazol-1-yl)-2-methylpyrimidin-4-yl)azetidin-3-yl)-1-ethyl-1H-benzo[d]imidazole] | 5.9 nM
COc1nc(N2CC(c3nc4ccccc4n3C)C2)cc(-n2nc(C)nc2C)n1 [Example 62, 2-{1-[6-(3,5-dimethyl-1H-1,2,4-triazol-1-yl)-2-methoxypyrimidin-4-yl]azetidin-3-yl}-1-methyl-1H-benzimidazole] | 0.76 nM
Cc1nc(N2CC(c3nc4ccccc4n3C)C2)cc(-n2cc(C(F)(F)F)cn2)n1 [Example 16, 1-methyl-2-(1-(2-methyl-6-(4-(trifluoromethyl)-1H-pyrazol-1-yl)pyrimidin-4-yl)azetidin-3-yl)-1H-benzo[d]imidazole] | 2.7 nM
Cc1nc(N2CC(c3nc4ccccc4n3C)C2)cc(-n2nc(C)nc2C2CC2)n1 [Example 36, 2-(1-(6-(5-cyclopropyl-3-methyl-1H-1,2,4-triazol-1-yl)-2-methylpyrimidin-4-yl)azetidin-3-yl)-1-methyl-1H-benzo[d]imidazole] | 4.5 nM
Cc1noc(COc2nc(N3CC(c4nc5ccccc5n4C)C3)cc(-n3nc(C)nc3C)n2)n1 [Example 75, 5-(((4-(3,5-dimethyl-1H-1,2,4-triazol-1-yl)-6-(3-(1-methyl-1H-benzo[d]imidazol-2-yl)azetidin-1-yl)pyrimidin-2-yl)oxy)methyl)-3-methyl-1,2,4-oxadiazole] | 0.7 nM

These reach a lower Ki. Values come first.

Ki | Structure (SMILES)
0.49 nM | COC(=O)CCc1nc(C)nn1-c1cc(N2CC(c3nc4ccccc4n3C)C2)nc(C)n1 [Example 43, methyl 3-(3-methyl-1-(2-methyl-6-(3-(1-methyl-1H-benzo[d]imidazol-2-yl)azetidin-1-yl)pyrimidin-4-yl)-1H-1,2,4-triazol-5-yl)propanoate]
0.53 nM | Cc1cnn(-c2cc(N3CC(c4nc5ccccc5n4C)C3)nc(C3CC3)n2)c1 [Example 6, 2-(1-(2-cyclopropyl-6-(4-methyl-1H-pyrazol-1-yl)pyrimidin-4-yl)azetidin-3-yl)-1-methyl-1H-benzo[d]imidazole]
0.63 nM | Cc1nc(N2CC(c3nc4ccccc4n3C)C2)cc(-n2cc(C)c(C)n2)n1 [Example 8, 2-(1-(6-(3,4-dimethyl-1H-pyrazol-1-yl)-2-methylpyrimidin-4-yl)azetidin-3-yl)-1-methyl-1H-benzo[d]imidazole]
0.46 nM | Cc1nc(C)n(-c2cc(N3CC(c4nc5ccccc5n4C)C3)nc(C3CC3)n2)n1 [Example 61, 2-{1-[2-cyclopropyl-6-(3,5-dimethyl-1H-1,2,4-triazol-1-yl)pyrimidin-4-yl]azetidin-3-yl}-1-methyl-1H-benzimidazole]
0.28 nM | Cc1nc(C)n(-c2cc(N3CC(c4nc5ccccc5n4C)C3)nc(C#N)n2)n1 [Example 79, 4-(3,5-dimethyl-1H-1,2,4-triazol-1-yl)-6-[3-(1-methyl-1H-benzimidazol-2-yl)azetidin-1-yl]pyrimidine-2-carbonitrile]
0.26 nM | Cc1nc(C)n(-c2cc(N3CC(c4nc5ccccc5n4C)C3)nc(-n3ccnc3C)n2)n1 [Example 77, 2-(1-(6-(3,5-dimethyl-1H-1,2,4-triazol-1-yl)-2-(2-methyl-1H-imidazol-1-yl)pyrimidin-4-yl)azetidin-3-yl)-1-methyl-1H-benzo[d]imidazole]
0.49 nM | Cc1nc(C)n(-c2cc(N3CC(c4nc5ccccc5n4C)C3)nc(OCc3ccon3)n2)n1 [Example 74, 3-(((4-(3,5-dimethyl-1H-1,2,4-triazol-1-yl)-6-(3-(1-methyl-1H-benzo[d]imidazol-2-yl)azetidin-1-yl)pyrimidin-2-yl)oxy)methyl)isoxazole]
0.065 nM | Cc1nc(N2CC(c3nc4ccccc4n3C)C2)cc(-n2nc(C)nc2Cc2cc(F)ccc2F)n1 [Example 57, 2-(1-(6-(5-(2,5-difluorobenzyl)-3-methyl-1H-1,2,4-triazol-1-yl)-2-methylpyrimidin-4-yl)azetidin-3-yl)-1-methyl-1H-benzo[d]imidazole]
0.4 nM | Cc1nc(C)n(-c2cc(N3CC(c4nc5ccccc5n4C)C3)nc(OCc3ccno3)n2)n1 [Example 71, 5-(((4-(3,5-dimethyl-1H-1,2,4-triazol-1-yl)-6-(3-(1-methyl-1H-benzo[d]imidazol-2-yl)azetidin-1-yl)pyrimidin-2-yl)oxy)methyl)isoxazole]
0.29 nM | Cc1nc(C)n(-c2cc(N3CC(c4nc5ccccc5n4C)C3)nc(N3CCCC3)n2)n1 [Example 78, 2-{1-[6-(3,5-dimethyl-1H-1,2,4-triazol-1-yl)-2-(pyrrolidin-1-yl)pyrimidin-4-yl]azetidin-3-yl}-1-methyl-1H-benzimidazole]
